Assay results published in US10322111B2, “Chemokine receptor binding heterocyclic compounds with enhanced efficacy” (Genzyme Corporation, priority 2001, dated 2019).

Tests used:
[1] = system: circulating CD34+ progenitor/stem cells; conditions: single dose of 80 μg/kg, cited from earlier work
bone marrow stem cells = conditions: rats, coronary artery ligation, administered within hours after cardiac ischemia, with or without rhG-CSF
Experimental: Adult rats are anesthetized and a thoracotomy is performed. The descending branch of the left coronary artery is ligated and not reperfused. […] Control rats are not treated with the reagents. The animals are monitored at one-week intervals by echocardiography and MRI. […] On the day of sacrifice, the hemodynamic functions are analyzed for left ventricle-end diastolic pressure, left ventricle-developed pressure and the rate of rise and fall of left ventricle pressure. The heart is then arrested in diastole and perfused via the abdominal aorta to flush residual blood from the vascular network of the myocardium. […] Several slices are made through the fixed heart and these are embedded in paraffin and sections. The sections are stained and analyzed by light microscopy to determine the size of the infarct in the treated and control animals. […] The immunohistochemical analysis involves the identification of transcription factors and surface markers expressed in early stages of myocyte development.

## c1cc(CN2CCCNCCNCCCNCC2)ccc1CN1CCCNCCNCCCNCC1 [AMD-3100]
[1]; 6 hour time point
  peak increase in circulating CD34+ progenitor/stem cells: 6 fold
[1]
  WBC count: 17,000 μl
Bone marrow stem cells
  cardiac remodeling and scar formation: block to cardiac remodeling and scar formation
  mobilization of bone marrow stem cells: mobilizes bone marrow stem cells rapidly
  regeneration of myocardium: regeneration of the dead myocardium
